# Reference: PMC8362065, “Easily Available, Amphiphilic Diiron Cyclopentadienyl Complexes Exhibit in Vitro Anticancer Activity in 2D and 3D Human Cancer Cells through Redox Modulation Triggered by CO Release” (Chemistry (Weinheim an Der Bergstrasse, Germany), 2021)
# Assays:
# [1] = Octanol/water partition coefficient, shake-flask method and UV/Vis
# Protocol: Octanol/water partition coefficients (log Pow ). Partition coefficients (P ow; IUPAC: K D partition constant[53]), defined as P ow=corg/caq, where corg and caq are molar concentrations of the selected compound in the organic and aqueous phase, respectively, were determined by the shake‐flask method and UV/Vis measurements.[[16a], [54]] Deionized water and octan‐1‐ol were vigorously stirred for 24 h, to enable saturation of both phases, then separated by centrifugation. A stock solution of the selected Fe compound (ca. 2 mg) was prepared by first adding acetone (50 μL, to help solubilization), followed by water‐saturated octanol (2.5 mL). The solution was diluted with water‐saturated octanol (ca. 1 : 3 v/v ratio, cFe2 ≈10^−4 M, so that 1.5≤A≤2.0 at λ max) and its UV/Vis spectrum was recorded ( A0/org ). An aliquot of the solution (V org=1.2 mL) was transferred into a test tube and octanol‐saturated water (V org=V aq=1.2 mL) was added. The mixture was vigorously stirred for 30 min at 21 °C then centrifuged (RCF 805, 5 min; Hettich EBA 8G). The UV/Vis spectrum of the organic phase was recorded ( Af/org ) and the partition coefficient was calculated as P ow= Af/org /( A0/org g− Af/org ) where A0/org and Af/org are the absorbance in the organic phase before and after partition with the aqueous phase, respectively.[53] For [2B]BF4, [2C]Cl and [3F]CF3SO3 an inverse procedure was followed, starting from a solution of the compound in octanol‐saturated water. The partition coefficient was calculated as P ow=( A0/aq − Af/aq )/ Af/aq where A0/aq and Af/aq are the absorbance in the aqueous phase before and after partition with the organic phase, respectively.
# [2] = tested on: Embryonic kidney HEK293 cells; test: MTT assay, noncancerous cell line; format: cell-based, human; details: 72 h
# Protocol: As one of the main drawbacks of chemotherapeutics is the toxic effect toward noncancerous cells, we measured the cytotoxicity of tested complexes against a noncancerous cell line (HEK293) and calculated the selectivity index (SI, defined as the ratio between the IC50 value in noncancerous cells and the corresponding average IC50 value related to cancer cells; Table 5).
# (§1) Compounds [2B]BF4, [2C]CF3SO3, [2D]CF3SO3 and [3F]CF3SO3 were dissolved in water while the other compounds were dissolved in the minimum DMSO amount prior to cell culture testing. A calculated amount of the stock drug DMSO solution was added to the cell culture media to reach a final maximum DMSO concentration of 0.5 %, which had no effects on cell viability.
# (§2) Cell cultures. Human colon (HCT‐15), pancreatic (PSN‐1) and breast (MCF‐7) carcinoma cell lines along with human melanoma cells (A375) were obtained from American Type Culture Collection (ATCC, Rockville, MD). Embryonic kidney HEK293 cells were obtained from the European Collection of Cell Cultures (ECACC, Salisbury, UK). Human ovarian 2008 cancer cells were kindly provided by Prof. G. Marverti (Dept. of Biomedical Science of Modena University, Italy). MCF‐7 ADR cells were kindly provided by Prof. N. Colabufo (Dept. Pharmacy, University of Bari, Italy). Cell lines were maintained in the logarithmic phase at 37 °C in a 5 % CO2 atmosphere using the following culture media containing 10 % fetal calf serum (Euroclone, Milan, Italy), antibiotics (50 units/mL penicillin and 50 μg/mL streptomycin) and 2 mM L‐glutamine: i) RPMI‐1640 medium (Euroclone, Milan, Italy) for PSN‐1, 2008, HCT‐15, MCF‐7 and MCF‐7 ADR cells; ii) DMEM for A375 and HEK293 cells.
# (§3) MTT assay. The growth inhibitory effect towards tumour cells was evaluated by means of MTT assay as previously described.[57] Briefly, 3–8×10^3 cells/well, dependent upon the growth characteristics of the cell line, were seeded in 96‐well microplates in growth medium (100 μL). After 24 h, the medium was removed and replaced with a fresh one containing the compound to be studied at the appropriate concentration. Triplicate cultures were established for each treatment. After 24 or 72 h, each well was treated with 10 μL of a 5 mg/mL MTT saline solution, and following 5 h of incubation, 100 μL of a sodium dodecyl sulfate (SDS) solution in HCl 0.01 M were added. After an overnight incubation, cell growth inhibition was detected by measuring the absorbance of each well at 570 nm using a Bio‐Rad 680 microplate reader. Mean absorbance for each drug dose was expressed as a percentage of the control untreated well absorbance and plotted against drug concentration. IC50 values, the drug concentrations that reduce the mean absorbance at 570 nm to 50 % of those in the untreated control wells, were calculated by the four‐parameter logistic (4‐PL) model. Evaluation was based on means from at least four independent experiments.
# [3] = tested on: Human breast (MCF‐7) carcinoma cell line; test: MTT assay, 2D cell culture; format: cell-based; details: 72 h
# Protocol: as §1, §2, §3
# [4] = tested on: Human colon (HCT‐15) carcinoma cell line; test: MTT assay, 2D cell culture; format: cell-based; details: HCT‐15 cells, 72 h
# Protocol: as §1, §2, §3
# [5] = tested on: Human ovarian 2008 cancer cells; test: MTT assay, 2D cell culture; format: cell-based; details: 2008 cells, 72 h
# Protocol: as §1, §2, §3
# [6] = tested on: human melanoma cells (A375); test: MTT assay, 2D cell culture; format: cell-based; details: 72 h
# Protocol: as §1, §2, §3
# [7] = tested on: Human pancreatic (PSN‐1) carcinoma cell line; test: MTT assay, 2D cell culture; format: cell-based; details: PSN‐1 cells, 72 h, read-out: IC50 (μM)±SD
# Protocol: as §1, §2, §3
# [8] = tested on: 3D cell spheroids of human ovarian (2008) cancer cells; test: Acid phosphatase (APH) assay, 3D spheroid culture; format: cell-based; details: 2008 spheroids, 72 h, APH test
# From the text: (§4) The remarkable cell‐killing effect observed in 2D cultured cells prompted us to evaluate the in vitro antitumor activity of the complexes on 3D cell cultures. Differently from 2D monolayer culture, 3D spheroid cell culture systems comprise cancer cells in various cell growth stages. Consequently, the multicellular cancer spheroid model is recognized to better reflect the tumour mass in vivo regarding drug permeation, cell interactions, gene expression, hypoxia and nutrient gradients with respect to monolayer cell cultures, making 3D models more predictive than conventional 2D monolayer cultures in screening antitumor drugs.[38] Table 6 summarizes the IC50 values obtained after treatment of 3D cell spheroids of human ovarian (2008) and pancreatic (PSN‐1) cancer cells with the diiron complexes and cisplatin.
# (§5) Spheroid cultures. Spheroid cultures were obtained by seeding 2.5×10^3 cells/well in round bottom non‐tissue culture treated 96 well‐plate (Greiner Bio‐one, Kremsmünster, Austria) in phenol red free RPMI‐1640 medium (Sigma Chemical Co.), containing 10 % FCS and supplemented with 20 % methyl cellulose stock solution.
# (§6) Acid phosphatase (APH) assay. An APH modified assay was used for determining cell viability in 3D spheroids, as previously described.[58] IC50 values were calculated with a four‐parameter logistic (4‐PL) model. All the values are the means ± SD of not less than four independent experiments.
# [9] = tested on: 3D cell spheroids of human pancreatic (PSN‐1) cancer cells; test: Acid phosphatase (APH) assay, 3D spheroid culture; format: cell-based; details: PSN‐1 spheroids, 72 h, APH test
# From the text: as §4, §5, §6
# [10] = tested on: 3D cell spheroids of human ovarian (2008) cancer cells; test: Acid phosphatase (APH) assay, 3D spheroid culture; format: cell-based; details: 2008 cell line
# [11] = tested on: MCF‐7 ADR cells; test: MTT assay, multidrug-resistant cancer cell model overexpressing P-gp; format: cell-based, human
# Protocol: The antiproliferative activity was also investigated in a multidrug‐resistant cancer cell model overexpressing P‐gp (MCF‐7 ADR cells).
# as §1, §2, §3
# [12] = Solubility pattern of the isolated compound (qualitative); format: physicochemical; details: isolated solid
# [13] = Stability in D2O, D2O/CD3OD and DMSO-d6/D2O at 37 °C by 1H NMR; format: physicochemical; details: D2O
# Protocol: A detailed study on the behaviour of a selection of the diiron complexes in aqueous media was undertaken. Experimental procedures are provided in the Experimental Section and in the Supporting Information, with data collected in Tables 3, S3 and S4. […] The octanol/water partition coefficients (log P ow) were measured by a UV/Vis method and fall in between 0 and −1, reflecting an amphiphilic or slightly hydrophilic character. […] Conversely, those complexes with aromatic groups (i. e., 1H‐indol‐6‐yl, 2‐naphthyl and bis‐benzyl in [2A]^+, [3G]^+, [4G]^+ and [5H]^+) are less soluble in water and display increased affinity for n‐octanol (log P ow≈0). The diiron compounds are inert in aqueous solution at room temperature, and undergo a slow degradation at 37 °C. Under such conditions, a variable amount (50 to 86 %; Table S3) of the starting material was detected by ^1H NMR in D2O or D2O/CD3OD mixtures after 72 h.[33] During this time, the precipitation of a brown solid was observed, which in one case (from a [2C]CF3SO3 solution) was separated and identified as γ‐Fe2O3 by Raman analysis. In addition, headspace GC analyses performed on 5 % MeOH aqueous solutions of the compounds maintained at 37 °C allowed the identification and quantitation of the carbon monoxide released over a 48 h period (Table S4). These facts indicate that the thermal degradation process in aqueous solution leads to the progressive disassembly of the organometallic scaffold.[16] The presumed, controlled release of the iron centres (converted to iron oxide, see above) and carbon monoxide are two aspects that deserve attention with reference to the biological activity: note that the decay of ferrocene drug candidates into Fe^II ions was previously associated to their cytotoxicity,[34] while the activity of various iron carbonyl complexes was correlated to CO dissociation in the physiological media.[35]
# (§7) Stability in water (D2O) and cell culture medium. The procedures are described in the Supporting Information, and data are collected in Table S3.
# (§8) Table S3. Stability of diiron complexes in D2O, D2O/CD3OD, DMSO-d6/D2O and cell culture medium (DMEM-
# (§9) d/CD3OD) solution at 37 °C calculated by 1H NMR (Me2SO2 internal standard).
# (§10) % starting material (72 h) % starting material
# (§11) Compound D O D O/CD OD DMSO-d /D O DMEM-d
# (§12) [a] X = I for the stability in D 2O, X = CF3SO3 for the stability in cell culture medium. [b] Stability in D 2O and […]
# [14] = Stability in cell culture medium (DMEM) at 37 °C by 1H NMR; format: physicochemical; details: DMEM-d (6.6 % CD3OD)
# Protocol: Next, the stability of the diiron compounds in a cell culture medium (DMEM) solution at 37 °C, over a shorter time range (24 h), was assessed by ^1H NMR.
# as §7, §8, §9, §10, §11, §12
compound,measurement,setting,value
"O=C1C=CC(=O)c2ccccc21 [Naphthoquinone, reference compound]",logP at 30 min,[1],1.8 ± 0.2
"N.N.[Cl][Pt][Cl] [cisplatin, reference compound]",IC50,"[2]; HEK293 noncancerous cells, MTT",18.1 ± 3.6 µM
same,SI (selectivity index),[2]; IC50 in noncancerous HEK293 cells / average IC50 in cancer cells,2.2
same,IC50,[3]; MCF‐7 cells,8.8 ± 0.2 µM
same,IC50,[4],16.5 ± 2.2 µM
same,IC50,[5],2.2 ± 1.4 µM
same,IC50,[6],2.1 ± 0.3 µM
same,IC50,[7],12.1 ± 2.9 µM
same,IC50,[8],57.6 ± 3.6 µM
same,IC50,[9],61.7 ± 12.1 µM
same,IC50 ratio related to 3D and 2D experiments,[10],26
"COc1cccc2c1C(=O)c1c(O)c3c(c(O)c1C2=O)C[C@@](O)(C(=O)CO)C[C@@H]3O[C@H]1C[C@H](N)[C@H](O)[C@H](C)O1 [doxorubicin, reference compound]",IC50,"[11]; Homo sapiens, NCI/ADR-RES, MCF‐7 ADR cells, 72 h, MTT",7.8 ± 2.2 µM
same,RF=IC50 (resistant cells)/IC50 (wild‐type cells),"[11]; MCF‐7 ADR vs MCF‐7, 72 h",39
same,IC50,"[3]; Homo sapiens, MCF7, MCF‐7 cells",0.2 ± 0.03 µM
[Fe2Cp2(CO)2(μ‐CO){μ‐CNMe(2‐naphthyl)}]I [[3G]I],Solubility in water (qualitative),[12],sparingly soluble
[Fe2Cp2(CO)2(μ‐CO){μ‐CNMe(C6H11)}]X [[2C]Cl],Log P ow,"[1]; octanol/water, 21 °C",−1.1±0.08
same,% starting material (72 h),[13],79%
same,% starting material (24 h),[14],88%
[Fe2Cp2(CO)2(μ‐CO){μ‐CNMe(CH2CHCH2)}]X [[3F]I],Solubility in water (qualitative),[12],poorly soluble
[Fe2Cp2(CO)2(μ‐CO){μ‐CNMe(CH2CHCH2)}]X [[3F]X],% starting material (72 h),[13],60%
same,% starting material (24 h),[14],84%
[Fe2Cp2(CO)2(μ‐CO){μ‐CNMe(CH2PO3Et2)}]X [[2B]CF3SO3],IC50±SD (μM),[8],ineffective
same,IC50±SD (μM),[9],ineffective
